The values that follow come from patent US20240131168A1, “NAPHTHALENE RING-CONTAINING COMPOUND, PHARMACEUTICAL COMPOSITION CONTAINING SAME, AND USE THEREOF” (JIANGSU YAHONG MEDITECH CO., LTD., priority 2021, published 2024).

SMILES strings stand for the structures.

Holding throughout (format): cell-based
The subject of one experiment is TamR-MCF-7. The experiment in a line: CellTiter-Glo cell proliferation inhibition, TamR-MCF-7. To be noted: 144 h; TamR-MCF-7 (CTG), 6 days, starting concentration 10 μM; read-out: IH % max (maximum inhibition percentage). The procedure, abridged: (§1)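 MCF-7, TamR-MCF-7, and CRISPR-edited MCF-7 ER D538G or Y537S cells were seeded at 1,000 or 2,000 cells/well in EMEM and cultured 24 h. They were then exposed to a 4-fold, 10-point series (top 10 µM before addition to wells) for 6 days or 72 h at 37 °C. CellTiter-Glo luminescence gave IC50 and maximum % inhibition.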
On the technique in general: Cellular ATP, detected with luciferase, serves as a proxy for viable cell number.

Another experiment has as its system MCF-7 ER^Y537S. The experiment in a line: CellTiter-Glo cell proliferation inhibition, MCF-7 ER^Y537S. To be noted: Homo sapiens, MCF7, 144 h; MCF-7 ER^Y537S (CTG), 6 days, starting concentration 10 μM; read-out: IH % max (maximum inhibition percentage). The method, boiled down:
as §1

The test system of the next experiment is MDA-MB-468. As to the kind of experiment: CellTiter-Glo cell proliferation inhibition, MDA-MB-468. The note with it: Homo sapiens, 144 h; MDA-MB-468 (CTG), 6 days, starting concentration 10 μM; read-out: IH % max (maximum inhibition percentage).
A further experiment deals with MDA-MB-231. As to the kind of experiment: CellTiter-Glo cell proliferation inhibition, MDA-MB-231. The note with it: Homo sapiens, 144 h; MDA-MB-231 (CTG), 6 days, starting concentration 10 μM; read-out: IH % max (maximum inhibition percentage).

A word on the inhibition: it is how much of the control response was suppressed.

With `C[C@@H]1CN(CCOc2ccc(Oc3c(-c4ccc(S(C)(=O)=O)cc4)ccc4cc(O)ccc34)cc2)[C@@H](C)CN1CCOCC(=O)N1CCN(c2ccc3c(c2)CN(C2CCC(=O)NC2=O)C3=O)CC1` (stereo partly drawn) [Compound D9, 3-(5-(4-(2-(2-((2R,5S)-4-(2-(4-((6-hydroxy-2-(4-(methylsulfonyl)phenyl)naphthalen-1-yl)oxy)phenoxy)ethyl)-2,5-dimethylpiperazin-1-yl)ethoxy)acetyl)piperazin-1-yl)-1-oxoisoindolin-2-yl)piperidine-2,6-dione], the inhibition at up to 10 µM in the experiment with TamR-MCF-7 came to 31%; with MCF-7 ER^Y537S it was 34%; in the experiment on MDA-MB-468 it was 60%.
In the case of `CCN(CCOCCOCCN1CCN(c2ccc3c(c2)C(=O)N(C2CCC(=O)NC2=O)C3=O)CC1)CCOc1ccc(Oc2c(-c3ccc(S(C)(=O)=O)cc3)ccc3cc(O)ccc23)cc1` (stereo not drawn) [Compound D28, 2-(2,6-dioxopiperidin-3-yl)-5-(4-(2-(2-(2-(ethyl(2-(4-((6-hydroxy-2-(4-(methylsulfonyl)phenyl)naphthalen-1-yl)oxy)phenoxy)ethyl)amino)ethoxy)ethoxy)ethyl)piperazin-1-yl)isoindoline-1,3-dione], the figures for the inhibition at up to 10 µM with TamR-MCF-7, with MCF-7 ER^Y537S and in the experiment with MDA-MB-231 were 42%, 49% and 68%, respectively.
`CCN(CCOc1ccc(Oc2c(-c3ccc(S(C)(=O)=O)cc3)ccc3cc(O)ccc23)cc1)CC(=O)N1CCN(c2ccc3c(c2)C(=O)N(C2CCC(=O)NC2=O)C3=O)CC1` (stereo not drawn) [Compound D8, 2-(2,6-dioxopiperidin-3-yl)-5-(4-(N-ethyl-N-(2-(4-((6-hydroxy-2-(4-(methylsulfonyl)phenyl)naphthalen-1-yl)oxy)phenoxy)ethyl)glycyl)piperazin-1-yl)isoindoline-1,3-dione]: the inhibition at up to 10 µM in the experiment on TamR-MCF-7 is 35%; in the experiment on MCF-7 ER^Y537S, 33%; with MDA-MB-468, 68%.
For the compound `CCN(CCCCCN(C)CC(=O)N1CCN(c2ccc3c(c2)C(=O)N(C2CCC(=O)NC2=O)C3=O)CC1)CCOc1ccc(Oc2c(-c3ccc(S(C)(=O)=O)cc3)ccc3cc(O)ccc23)cc1` (stereo not drawn) [Compound D31, 2-(2,6-dioxopiperidin-3-yl)-5-(4-(N-(5-(ethyl(2-(4-((6-hydroxy-2-(4-(methylsulfonyl))phenyl)naphthalen-1-yl)oxy)phenoxy)ethyl)aminopentyl)-N-methylglycyl)piperazin-1-yl)isoindoline-1,3-dione], the inhibition at up to 10 µM with MCF-7 ER^Y537S came to 73%; in the experiment on MDA-MB-468, 100%; in the experiment on MDA-MB-231, 56%.
`CS(=O)(=O)c1ccc(-c2ccc3cc(O)ccc3c2Oc2ccc(OCCOCCOCCN3CCN(c4ccc5c(c4)CN(C4CCC(=O)NC4=O)C5=O)CC3)cc2)cc1` (stereo not drawn) [Compound D30]: the inhibition at up to 10 µM in the experiment with TamR-MCF-7 is 30%.
In the case of `CS(=O)(=O)c1ccc(-c2ccc3cc(O)ccc3c2Oc2ccc(OCCOCCOCCN3CCN(c4ccc5c(c4)C(=O)N(C4CCC(=O)NC4=O)C5)CC3)cc2)cc1` (stereo not drawn) [Compound D22, 3-(6-(4-(2-(2-(2-(4-((6-hydroxy-2-(4-(methylsulfonyl)phenyl)naphthalen-1-yl)oxy)phenoxy)ethoxy)ethoxy)ethyl)piperazin-1-yl)-1-oxoisoindolin-2-yl)piperidine-2,6-dione], the inhibition at up to 10 µM with TamR-MCF-7 is 33%; with MDA-MB-231, 36%.
Regarding `CS(=O)(=O)c1ccc(-c2ccc3cc(O)ccc3c2Oc2ccc(N3CCN(CCCCCOCC(=O)N4CCN(c5ccc6c(c5)CN(C5CCC(=O)NC5=O)C6=O)CC4)CC3)cc2)cc1` (stereo not drawn) [Compound D11, 3-(5-(4-(2-((5-(4-(4-((6-hydroxy-2-(4-(methylsulfonyl)phenyl)naphthalen-1-yl)oxy)phenyl)piperazin-1-yl)pentyl)oxy)acetyl)piperazin-1-yl)-1-oxoisoindolin-2-yl)piperidine-2,6-dione], the inhibition at up to 10 µM in the experiment on MCF-7 ER^Y537S is 52%.
For the compound `C[C@@H]1CN(CCOCC(=O)N2CCN(c3ccc4c(c3)C(=O)N(C3CCC(=O)NC3=O)C4=O)CC2)[C@@H](C)CN1CCOc1ccc(Oc2c(-c3ccc(S(C)(=O)=O)cc3)ccc3cc(O)ccc23)cc1` (stereo partly drawn) [Compound D15, 2-(2,6-dioxopiperidin-3-yl)-5-(4-(2-(2-((2S,5R)-4-(2-(4-((6-hydroxy-2-(4-(methylsulfonyl)phenyl)naphthalen-1-yl)oxy)phenoxy)ethyl)-2,5-dimethylpiperazin-1-yl)ethoxy)acetyl)piperazin-1-yl)isoindoline-1,3-dione], the inhibition at up to 10 µM in the experiment with MCF-7 ER^Y537S stood at 46%.
As to `CCN(CCOc1ccc(Oc2c(-c3ccc(S(C)(=O)=O)cc3)ccc3cc(O)ccc23)cc1)C(=O)c1ccc(CCC2CCN(C3CCN(c4ccc5c(c4)C(=O)N(C4CCC(=O)NC4=O)C5=O)CC3)CC2)cc1` (stereo not drawn) [Compound D34, 4-(2-(1′-(2-(2,6-dioxopiperidin-3-yl)-1,3-dioxoisoindolin-5-yl)-[1,4′-bipiperidin]-4-yl)ethyl)-N-ethyl-N-(2-(4-((6-hydroxy-2-(4-(methylsulfonyl)phenyl)naphthalen-1-yl)oxy)phenoxy)ethyl)benzamide], the inhibition at up to 10 µM with TamR-MCF-7 amounted to 41%; in the experiment with MCF-7 ER^Y537S it was 60%; in the experiment on MDA-MB-231 it was 37%.
For `CS(=O)(=O)c1ccc(-c2ccc3cc(O)ccc3c2Oc2ccc(OCCOCCOCCOCCN3CCN(c4ccc5c(c4)C(=O)N(C4CCC(=O)NC4=O)C5=O)CC3)cc2)cc1` (stereo not drawn) [Compound D19], in the experiment on TamR-MCF-7, the inhibition at up to 10 µM was determined as 39%.
